Values joined by “and” are separate entries in the source; they are usually repeats but may differ in a detail not shown here. Equal entries are not always repeated. Toxic doses and inconclusive results are not listed. No stated cut-off is given here; in the data, active means T/C of 150% or more; inactive means T/C below 125%.
Tested on: L1210 leukemia ip in BDF1 mice, survival T/C
Assay: NCI In Vivo Anticancer Drug Screen. Data for tumor model L1210 Leukemia (intraperitoneal) in B6D2F1 (BDF1) mice
Settings: endpoint: mean survival time, higher = longer survival
In short: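 Mice bearing the transplanted tumor received compound or vehicle. Survival of the treated group was divided by that of the vehicle-treated control group to give the ratio.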

[1] = dose: 100.0 mg/kg/injection, schedule: Q04DX003 (ip), vehicle: saline with Tween-80
[2] = dose: 200.0 mg/kg/injection, schedule: Q04DX003 (ip), vehicle: saline with Tween-80
[3] = dose: 400.0 mg/kg/injection, schedule: Q04DX003 (ip), vehicle: saline with Tween-80
[4] = dose: 100.0 mg/kg/injection, schedule: Q01DX001 (ip), vehicle: saline
[5] = dose: 100.0 mg/kg/injection, schedule: Q04DX003 (ip), vehicle: Klucel (hydroxypropylcellulose) (HPC)
[6] = dose: 200.0 mg/kg/injection, schedule: Q04DX003 (ip), vehicle: Klucel (hydroxypropylcellulose) (HPC)
[7] = dose: 400.0 mg/kg/injection, schedule: Q01DX001 (ip), vehicle: saline
[8] = dose: 100.0 mg/kg/injection, schedule: Q01DX009 (ip), vehicle: saline with Tween-80
[9] = dose: 100.0 mg/kg/injection, schedule: Q04DX002 (ip), vehicle: saline with Tween-80
[10] = dose: 200.0 mg/kg/injection, schedule: Q01DX009 (ip), vehicle: saline with Tween-80
[11] = dose: 200.0 mg/kg/injection, schedule: Q04DX002 (ip), vehicle: saline with Tween-80
[12] = dose: 400.0 mg/kg/injection, schedule: Q01DX009 (ip), vehicle: saline with Tween-80
[13] = dose: 400.0 mg/kg/injection, schedule: Q04DX002 (ip), vehicle: saline with Tween-80
[14] = dose: 100.0 mg/kg/injection, schedule: Q04DX003 (ip), vehicle: saline
[15] = dose: 200.0 mg/kg/injection, schedule: Q04DX003 (ip), vehicle: saline
[16] = dose: 50.0 mg/kg/injection, schedule: Q01DX009 (ip), vehicle: saline with Tween-80
[17] = dose: 100.0 mg/kg/injection, schedule: Q01DX001 (ip), vehicle: other
[18] = dose: 200.0 mg/kg/injection, schedule: Q01DX001 (ip), vehicle: other
[19] = dose: 400.0 mg/kg/injection, schedule: Q01DX001 (ip), vehicle: other

Measured: T/C

CCOC(=O)/C(C#N)=C1/C=C(N)CCC1
inactive: dose: 100.0 mg/kg/injection, schedule: Q01DX001 (ip), vehicle: carboxymethylcellulose (CMC) 98 % of control | dose: 200.0 mg/kg/injection, schedule: Q01DX001 (ip), vehicle: carboxymethylcellulose (CMC) 94 % of control | dose: 400.0 mg/kg/injection, schedule: Q01DX001 (ip), vehicle: carboxymethylcellulose (CMC) 100 % of control

Cc1cc2c(cc1O)C(C)(C)CCC2(C)C
inactive: [1] 92 % of control | [2] 100 % of control | [3] 97 % of control

CCOC(=O)c1ccnc2ccc(O)cc12
inactive: [1] 104 % of control | [2] 96 % of control | [3] 95 % of control

CNC1(c2ccccc2)CC2CCC(C2)C1O (centres undefined)
inactive: [4] 98 % of control | [5] 101 % of control | dose: 200.0 mg/kg/injection, schedule: Q01DX001 (ip), vehicle: saline 106 % of control | [6] 104 % of control | [7] 101 % of control | dose: 400.0 mg/kg/injection, schedule: Q04DX003 (ip), vehicle: Klucel (hydroxypropylcellulose) (HPC) 108 % of control

O=Cc1cc(Br)c(O)c(Br)c1
inactive: dose: 50.0 mg/kg/injection, schedule: Q04DX003 (ip), vehicle: Klucel (hydroxypropylcellulose) (HPC) 100 % of control | [5] 101 % of control | [6] 100 % of control

O=C(CNC(=O)c1ccc(C(=O)NCC(=O)Nc2ccc(C3=NCCN3)cc2)cc1)Nc1ccc(C2=NCCN2)cc1
inactive: dose: 1.87 mg/kg/injection, schedule: Q01DX015 (ip), vehicle: methylcellulose (MC) 102 % of control | dose: 3.75 mg/kg/injection, schedule: Q01DX015 (ip), vehicle: methylcellulose (MC) 103 % of control | dose: 7.5 mg/kg/injection, schedule: Q01DX015 (ip), vehicle: methylcellulose (MC) 100 % of control | dose: 10.0 mg/kg/injection, schedule: Q01DX015 (ip), vehicle: methylcellulose (MC) 102 % of control | dose: 250.0 mg/kg/injection, schedule: Q01DX Z (ip), vehicle: carboxymethylcellulose (CMC) 106 % of control
active: dose: 62.0 mg/kg/injection, schedule: Q01DX Z (ip), vehicle: carboxymethylcellulose (CMC) 188 % of control | dose: 125.0 mg/kg/injection, schedule: Q01DX Z (ip), vehicle: carboxymethylcellulose (CMC) 233 % of control | dose: 150.0 mg/kg/injection, schedule: Q01DX001 (ip), vehicle: methylcellulose (MC) 154 % of control | dose: 300.0 mg/kg/injection, schedule: Q01DX001 (ip), vehicle: methylcellulose (MC) 158 % of control | dose: 600.0 mg/kg/injection, schedule: Q01DX001 (ip), vehicle: methylcellulose (MC) 187 % of control and 201 % of control and 207 % of control | dose: 900.0 mg/kg/injection, schedule: Q01DX001 (ip), vehicle: methylcellulose (MC) 174 % of control and 262 % of control

C[N+](C)(C)C1CC1
inactive: dose: 12.5 mg/kg/injection, schedule: Q01DX009 (ip), vehicle: saline 94 % of control | dose: 25.0 mg/kg/injection, schedule: Q01DX009 (ip), vehicle: saline 98 % of control | dose: 25.0 mg/kg/injection, schedule: Q04DX003 (ip), vehicle: saline 93 % of control | dose: 50.0 mg/kg/injection, schedule: Q01DX009 (ip), vehicle: saline 96 % of control and 102 % of control | dose: 50.0 mg/kg/injection, schedule: Q04DX003 (ip), vehicle: saline 103 % of control

COc1cc(C(=O)NN2C(N)=NC(N)=NC2(C)C)cc(OC)c1OC
inactive: dose: 100.0 mg/kg/injection, schedule: Q04DX003 (ip), vehicle: saline sonified 105 % of control | dose: 200.0 mg/kg/injection, schedule: Q04DX003 (ip), vehicle: saline sonified 101 % of control | dose: 400.0 mg/kg/injection, schedule: Q04DX003 (ip), vehicle: saline sonified 106 % of control

Oc1ccccc1C=NCCN1CC1.Oc1ccccc1C=NCCN1CC1.[Co+2]
inactive: dose: 20.0 mg/kg/injection, schedule: Q04DX002 (ip), vehicle: saline + alcohol 102 % of control | dose: 40.0 mg/kg/injection, schedule: Q04DX002 (ip), vehicle: saline + alcohol 106 % of control | dose: 80.0 mg/kg/injection, schedule: Q04DX002 (ip), vehicle: saline + alcohol 98 % of control

COc1ccc(OC)c(NC(=O)c2cc3ccccc3cc2OC(=O)Nc2cc(Cl)ccc2OC)c1
inactive: [8] 94 % of control | [9] 103 % of control and 112 % of control | [1] 103 % of control | [10] 98 % of control and 89 % of control | [11] 97 % of control and 87 % of control | [2] 102 % of control | [12] 102 % of control and 89 % of control | [13] 101 % of control and 91 % of control | [3] 97 % of control

O=C(O)C(Cl)Cl
inactive: [14] 98 % of control | [15] 93 % of control

NC(=O)C1=C(CCCCl)c2ccccc2C1=O
inactive: [16] 100 % of control

COc1c(O)c(O)cc2c[n+]3ccccc3c(C)c12
inactive: dose: 50.0 mg/kg/injection, schedule: Q01DX009 (ip), vehicle: Klucel (hydroxypropylcellulose) (HPC) 95 % of control

COC(=O)C1C(=O)CCC2CN3CCc4c([nH]c5ccccc45)C3CC21 (centres undefined)
inactive: dose: 12.5 mg/kg/injection, schedule: Q04DX002 (ip), vehicle: saline with Tween-80 94 % of control | dose: 25.0 mg/kg/injection, schedule: Q04DX002 (ip), vehicle: saline with Tween-80 100 % of control | dose: 50.0 mg/kg/injection, schedule: Q04DX002 (ip), vehicle: saline with Tween-80 90 % of control

CCOC(O)C(Cl)(Cl)Cl (centres undefined)
inactive: dose: 100.0 mg/kg/injection, schedule: Q01DX009 (ip), vehicle: saline 103 % of control | [14] 100 % of control | dose: 200.0 mg/kg/injection, schedule: Q01DX009 (ip), vehicle: saline 102 % of control | [15] 103 % of control | dose: 400.0 mg/kg/injection, schedule: Q01DX009 (ip), vehicle: saline 92 % of control | dose: 400.0 mg/kg/injection, schedule: Q04DX003 (ip), vehicle: saline 90 % of control

O=[N+]([O-])c1ccc(OC(=S)N2CCOCC2)cc1
inactive: [9] 104 % of control | [11] 104 % of control | [13] 101 % of control

COC(=O)C#CC(=O)OC
inactive: dose: 3.13 mg/kg/injection, schedule: Q04DX003 (ip), vehicle: Klucel (hydroxypropylcellulose) (HPC) 101 % of control | dose: 6.25 mg/kg/injection, schedule: Q04DX003 (ip), vehicle: Klucel (hydroxypropylcellulose) (HPC) 99 % of control | dose: 12.5 mg/kg/injection, schedule: Q04DX003 (ip), vehicle: Klucel (hydroxypropylcellulose) (HPC) 111 % of control

O=[N+]([O-])c1ccc(N2N=NC(c3ccccc3)C2(c2ccccc2)N2CCOCC2)cc1 (centres undefined)
inactive: dose: 150.0 mg/kg/injection, schedule: Q01DX001 (ip), vehicle: saline 89 % of control

CN(C)c1ccc(C(=O)c2ccc(N(C)C)c(N)c2)cc1N
inactive: [17] 106 % of control | [18] 92 % of control | [19] 101 % of control

CCCCCCCCCCCCCCC(=O)N/N=C/c1ccc([N+](=O)[O-])s1
inactive: [8] 91 % of control | [10] 88 % of control | [12] 100 % of control

CC(C)COC(=O)C#CC(=O)OCC(C)C
inactive: dose: 25.0 mg/kg/injection, schedule: Q01DX001 (ip), vehicle: water 111 % of control | dose: 50.0 mg/kg/injection, schedule: Q01DX001 (ip), vehicle: water 106 % of control | dose: 100.0 mg/kg/injection, schedule: Q01DX001 (ip), vehicle: water 116 % of control

CNC(=O)Nc1ccc(Cl)cn1
inactive: dose: 25.0 mg/kg/injection, schedule: Q01DX009 (ip), vehicle: saline with Tween-80 100 % of control | [16] 97 % of control | [8] 98 % of control and 103 % of control

NC1CC2(CCC1=O)c1ccccc1-c1ccccc12 (centres undefined)
inactive: [4] 101 % of control | [7] 104 % of control

CCOC(=O)Cc1cc(=O)n(C)c2ccccc12
inactive: [17] 97 % of control | [18] 97 % of control | [19] 103 % of control

O=C(O)c1ccc(N=C=S)cc1O
inactive: dose: 100.0 mg/kg/injection, schedule: Q01DX001 (ip), vehicle: Klucel (hydroxypropylcellulose) (HPC) 97 % of control | dose: 200.0 mg/kg/injection, schedule: Q01DX001 (ip), vehicle: Klucel (hydroxypropylcellulose) (HPC) 107 % of control | dose: 400.0 mg/kg/injection, schedule: Q01DX001 (ip), vehicle: Klucel (hydroxypropylcellulose) (HPC) 97 % of control

Reference: PubChem BioAssay AID248 (DTP/NCI, 2004)
